Holding throughout (format): in vivo
The subject of series [1] is Brown Dog Ticks, Rhipicephalus sanguineus. The note with it: in vivo. An excerpt:
The following protocol was employed to test compounds of this invention for toxicity (mortality) against ticks. There were 5 replicates of 5 dog ticks for each treatment. […] Filter paper strips were laid on a sheet of aluminum foil and enough of each of the test sample was applied to thoroughly saturate the paper. The paper was then rolled and placed inside a glass shell vial as to line the sides of the vial. A small paper disc, also saturated with the test sample, was then placed at the bottom of the vial. Brown Dog Ticks, Rhipicephalus sanguineus, were then introduced into the vials which were covered with aluminum foil, the inside of which was painted with some of the test sample. The ticks remained in the vials, constantly exposed to the test samples, for the duration of the test. A small hole was poked through the foil for ventilation. Each control replicate was subjected to the same procedures outlined above, except that they were not treated. The controls were placed in the same area as the test replicates for the duration of the test. Mortality observations were made at 24 hours. Ticks were classified as alive (able to move normally), moribund (those classified as moribund will show some movement, but will not be able to crawl in a coordinated manner, or will be unable to right themselves if placed on their backs), or dead (no movement after physical stimuli). All dead ticks were confirmed by probing or agitation to make sure that they are unable to move; any that show movement visible to the naked eye were recorded as moribund. At 24 hours the tick mortality was 0% for the control, 100% for γ-dodecalactone, 100% for methyl apritone and 76% for methyl dihydrojasmonate.

The subject of a further series is Black Widow spiders. Put plainly: Black Widow spider choice test in half-treated tube shelters. The conditions noted are these: 5% in isopropanol; location after 24 hours. As for the experimental part:
Control against Black Widow spiders was determined using the following protocol. One test container containing two card stock tube shelters, one half treated with a test sample and the other half treated with isopropanol was prepared. A spider was introduced in the center of the tube. The spider was then given a choice to move to one end of the shelters. The following day, its location is recorded and compared to the results from a shelter containing untreated half-shelters.
On the day of the test one of the two shelters was sprayed with the test sample solution using a 2 oz pump spray bottle. Only the surfaces that the spider will most likely contact were treated. Therefore, only the inside of one of the shelter tubes, including the end disc (spiders will not be able to access the outside part of the shelter) were sprayed. The total amount of product was weighed and recorded. The treated surface was allowed to dry for a minimum of ½ hour, or until solvent could not be detected by smell. At this time the shelter tubes were assembled.
Card stock paper tube shelters were constructed from 2 half-letter sized sheets (5½″×8½″) of paper, rolled and taped together to form a short tube. One end of each was covered with a circle of card stock paper, while the other end was later taped to the open end of the other half sheet, forming one long tube. […] The solvent-treated half was labeled with a “C” on the inner and outer walls with a pencil or a pen with solvent resistant ink. Prior to forming the final tube shelter, a semi-circular hole was cut into one of the margins of each sheet such that, once the two tubes are taped together, the holes correspond to the top and at the junction of the tubes for introduction of the spiders.
Twenty-five arenas were prepared in this manner for each test sample. There were five replicates of five spiders. Twenty-five additional control arenas were also prepared. They were prepared the same way, except that areas to be sprayed were sprayed with isopropanol only.
Replicates of five spiders were selected for each test formulation and for the control. The specimens were visually examined for overall physical condition. […] The spiders were transferred directly into the holding vials using flexible forceps or with a little coaxing with an artist brush. Because of their cannibalistic tendencies, each vial contained only one spider. There they were held until the time for testing.
At the test start the spiders were placed directly in the middle, through the opening at the top of the shelter tube, and the opening covered, with only one spider per arena. […] They were left alone for 24 hours, after which time their location within the arena was recorded. Spiders present inside the shelter treated with the test repellent were considered tolerant.

For the next series, the system named is Brown Dog Ticks. Briefly: Second repellent assay against Brown Dog Ticks. The note with it: 15% in isopropyl alcohol. The protocol: Also, a second repellent assay was used to evaluate six test samples against Brown Dog Ticks. Five replicates of five ticks were given the opportunity to quest onto a vertical strip of untreated filter paper and then allowed to move upward toward a second vertical strip of filter paper treated with one of the six candidate repellents or DEET®. In the control situation, the second strip was treated with isopropanol. They were then observed for directional or behavioral changes caused in response to contact with the repellent. Ticks were recorded as either repelled or not repelled. Compounds were diluted in isopropyl alcohol. The percentages of ticks repelled are shown below in Table 6.

A further series has as its system Pharaoh ants. Briefly: Pharaoh ant behaviour at treated-untreated interface on poster board. The conditions noted are these: 50% in acetone; 5 minutes after release. The protocol: Pharaoh ants were tested using the following protocol. The side of a 17″×23″ rectangular sheet of poster board was sprayed with the test sample or acetone, except for a region within a 6″ circle. The treated poster board was allowed to dry. Five worker ants were placed in the center of the 6″ untreated circle and allowed to wander outside the circle onto the treated surface. The behavior of the ants at the treated-untreated interface was recorded for 5 minutes after release. Test compounds were diluted in acetone.

For the next series, the system named is house flies. Briefly: House fly repellency on treated filter paper food trays in cages. The conditions noted are these: 5% in isopropyl alcohol; over 6 hours. The protocol: The bottom of each cage was lined with brown craft paper and divided into 4 equal quadrants. Each quadrant housed a makeshift filter paper food tray. Two of the four filter papers were treated with repellent and two treated with isopropanol. Control cages contained filter papers that were treated with 4 filter papers of isopropanol only. The number of flies resting on filter paper per quadrant was recorded every 30 minutes for a total of 6 hours. Cages were rotated to eliminate positional bias. […] Each of the test samples were diluted in isopropyl alcohol.

Molecules are shown by their SMILES.

For the molecule `CCC(C)=CCCC(C)=CCC1CCCC1=O` (stereo not shown) [Methyl apritone, methyl apritone], in series [1], the “24 hr mortality (%)” value worked out at 100% and the “tick mortality at 24 hours” value came out at 100%. In addition, the “% Repellency” value in the series with Black Widow spiders is on record as 37.5%. Further, the “Mean % repelled” value in the series with Brown Dog Ticks is reported as 100%. Moreover, in the series on Pharaoh ants, the “% crossed without stopping” value is recorded as 66%; the “% slowed, but crossed” value is reported as 2%; the “% stopped at interface” value turned out to be 66%. For the same molecule, the “Overall % Repellency” value in the series on house flies worked out at 45%.
Take `CCCCCC1C(=O)CCC1CC(=O)OC` (stereo not shown) [Methyl dihydrojasmonate, methyl dihydrojasmonate]: in series [1], the “24 hr mortality (%)” value is recorded as 76% and the “tick mortality at 24 hours” value was found to be 76%. Further, in the series on Black Widow spiders, the “% Repellency” value amounted to 87.5%. Moreover, the “Mean % repelled” value in the series on Brown Dog Ticks was 100%. In addition, in the series with Pharaoh ants, the “% crossed without stopping” value was 50%; the “% slowed, but crossed” value is on record as 20%; the “% stopped at interface” value is on record as 32%. Moreover, the “Overall % Repellency” value with house flies is reported as 52%.

(Values after patent US10785978B2, “Control and repellency of biting flies, house flies, ticks, ants, fleas, biting midges, cockroaches, spiders and stink bugs” (priority 2012, dated 2020).)
